Patent publication US9695191B2, “Conformationally constrained, fully synthetic macrocyclic compounds” (POLYPHOR AG, priority 2009, dated 2017)
Where two headings read alike, the source gives them in different places.

Experiments:
[1] = both, CD-1, mouse, 10 μM
Description: (§2) Example compounds were dissolved in DMSO/H2O 90:10 to a final concentration of 10 mM for plasma stability determination and metabolic stability determination.
(§3) Human plasma (3-5 donors, Blutspendedienst SRK, Basel) and CD-1 mouse plasma (mixed gender pool>50 animals, Innovative Research, CA, USA) are both sodium citrate stabilized. The assay is performed in triplicates at 10 μM compound concentration and 37° C. Samples are taken at 0, 15, 60, and 240 minutes and stopped by precipitation with 2 volumes of acetonitrile. The supernatant is collected, evaporated and reconstituted in a 5% acetonitrile solution to be analyzed by HPLC/MS/MS. The resulting peak area counts are expressed in percent of the 0 value and used to determine the endpoint stability in % and the half life T½ in minutes. In order to monitor assay integrity the degradation of propantheline is assayed with every experimental set

[2] = biological target: T1, 5-hydroxytryptamine 2B (5-HT2B) receptor (Homo sapiens, UniProt P41595); experiment: Ca2+ assay (FLIPR), 5-hydroxytryptamine 2B (5-HT2B) receptor, agonist mode (percentage activation); format: cell-based
T1 construct: expressed in transfected cells; host or cells: Ca2+ optimized hematopoietic cell lines (rat)
Description: Dose dependent agonist and antagonist activities were determined. Percentage activation and percentage inhibition values were determined.
Percentage activation was determined upon initial addition of the sample compounds followed by 10 minutes incubation at 25° C. Following compound incubation, reference agonists were added at EC80 to determine percentage inhibition.
All handling of ligands were done to ensure proper control throughout the experiments.
HBSS was supplemented with 20 mM HEPES (4-(2-hydroxyethyl)-piperazin-1-ethansulfonic acid) and 2.5 mM Probenecid (Sigma P8761).
GPCR assays were performed using Ca^2+ optimized hematopoietic cell lines (rat) with cultures never exceeding 90% confluency. […] After seeding, the assay plates were incubated for forty-five (45) minutes at room temperature. After room temperature incubation, the assay plates were incubated at 37° C. 5% CO2 for 24 hours prior to assaying.
All GPCR assays were performed using Fluo-8 Ca^2+ dye. Ca^2+ dye was prepared at 1× dye concentration in GPCR assay buffer. […] The plates were incubated for 90 minutes at 30° C. 5% CO2 prior to FLIPR assay.
Compound plates were prepared to add 50 μL/well during the agonist assay mode. During the FLIPR assay, 50 μL/well from the compound plate was diluted 3-fold into the existing 100 μL/well from the dye loading step. Therefore all compounds were prepared as 3× the final concentration desired in the assay.
After completion of the first single addition assay run, assay plate was removed from the FLIPR Tetra and placed at 25° C. for seven (7) minutes before antagonist assay.
From the FLIPR data, with negative control correction enabled, the maximum statistic for each well was exported and percentage activation relative to Emax control was calculated.

[3] = human, 10 μM
Description: as §2, §3

[4] = Metabolic stability, human microsomes; format: in vitro ADME; conditions: 37° C.; for Metabolic Stability 60 min hum: % of the initial 0 minutes value at 60 min, 10 μM
Description: (§1) Microsomes from a human 50 donor mixed gender pool and 1:1 mixtures of microsomes from CD-1 mouse single-gender pools are purchased from Celsis (Belgium). The enzymatic reaction is performed in a buffer containing an NADPH regeneration system and microsomes with the following end concentrations: 100 mM potassium phosphate buffer (all from Sigma), 1 mg/mL glucose-6-phosphate, 1 mg/mL β-nicotinamide adenine dinucleotide phosphate (NADP), 0.65 mg/mL magnesium chloride, 0.8 units/mL of glucose-6-phosphate dehydrogenase (prediluted with 5 mM citrate buffer), 10 μM compound and 1 mg/ml microsomal protein. Compounds are incubated at 37° C. in duplicates and samples are taken after 0, 20 and 60 minutes. After acetonitrile precipitation (2 volumes) and HPLC/MS/MS analysis metabolic turnover is expressed in % of the initial 0 minutes value and half life T½ (min) is calculated. Verapamil for human and propranolol for mouse are used as reference and are assayed with every experimental set. • F. P. Guengerich, Analysis and Characterization of Enzymes; in: Principles and Methods of Toxicology; A. W. Hayes (Ed.) Raven Press: New York, 1989, 777-813. • R. Singh et al., In vitro metabolism of a potent HIV-protease inhibitor (141W94) using rat, monkey and human liver S9, Rapid Commun. Mass Spectrom. 1996, 10, 1019-1026. 5. Results

[5] = Metabolic stability, CD-1 mouse microsomes; format: in vitro ADME; conditions: 37° C.; for Metabolic Stability 60 min mouse: % of the initial 0 minutes value at 60 min, 10 μM
Description: as §1

[6] = Plasma stability, human plasma; conditions: endpoint stability in % of the 0 value at 240 min, 10 μM, 37° C.
Description: as §2, §3

[7] = Plasma stability, CD-1 mouse plasma; conditions: endpoint stability in % of the 0 value at 240 min, 10 μM, 37° C.
Description: as §2, §3

[8] = from CNCC(=O)N1C[C@@H](NC(=O)OC(C)(C)C)C[C@H]1COc1cncc(C(=O)N(C)C[C@H](NC(=O)OCc2ccccc2)C(=O)O)c1; amide bond; T3P; CH2Cl2; 9.75 mM
[9] = 10 μM compound, 1 mg/ml microsomal protein, sampling up to 60 min

T1 sequence (P41595 whole entry): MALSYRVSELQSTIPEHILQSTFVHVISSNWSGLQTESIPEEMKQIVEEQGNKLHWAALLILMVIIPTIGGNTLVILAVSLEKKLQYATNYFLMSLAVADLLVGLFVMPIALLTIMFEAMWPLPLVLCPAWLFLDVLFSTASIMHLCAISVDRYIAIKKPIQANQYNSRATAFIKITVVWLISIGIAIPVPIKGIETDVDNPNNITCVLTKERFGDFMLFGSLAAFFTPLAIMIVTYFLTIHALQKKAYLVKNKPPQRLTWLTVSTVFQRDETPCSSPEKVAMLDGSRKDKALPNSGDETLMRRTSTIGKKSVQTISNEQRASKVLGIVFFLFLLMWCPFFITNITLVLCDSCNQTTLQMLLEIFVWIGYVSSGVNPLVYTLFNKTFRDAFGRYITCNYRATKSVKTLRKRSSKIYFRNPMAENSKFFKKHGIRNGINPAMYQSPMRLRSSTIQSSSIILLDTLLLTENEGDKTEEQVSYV

Compound	Metabolic Stability 60 min hum [4] [%]	Metabolic Stability 60 min mouse [5] [%]	Plasma Stability 240 min hum [6] [%]	Plasma Stability 240 min mouse [7] [%]	Metabolic Stability T ½ [min] hum [4, 9] [min]	Metabolic Stability T ½ [min] mouse [5, 9] [min]	Plasma Stability 240 min mouse [1] [%]	5-HT2B receptor agonist activity [% activation at 12.5 μM] [2] [%]	Plasma Stability 240 min hum [3] [%]	ring closure, yield of all isomers [8] [%]
CN(C)CC(=O)N[C@H]1C[C@H]2COc3ccc(F)cc3C(=O)N(C)[C@H](C(=O)NCCc3c[nH]c4ccccc34)CCC(=O)N(C)CC(=O)N2C1 [Ex. 16, (2S,11S,19aS)-2-{[2-(dimethylamino)acetyl]amino}-15-fluoro-N-[2-(1H-indol-3-yl)ethyl]-7,12-dimethyl-5,8,13-trioxo-2,3,6,7,8,9,10,11,12,13,19,19a-dodecahydro-1H,5H-pyrrolo [2,1-c][1,4,7,12]benzoxatriazacyclopentadecine-11-carboxamide]	31	79					97	45	95	
CC(=O)N[C@H]1C[C@H]2COc3ccc(F)cc3C(=O)N(C)[C@H](C(=O)NCCc3c[nH]c4ccccc34)CCC(=O)N(C)CC(=O)N2C1 [Ex. 9, (2S,11S,19aS)-2-(acetylamino)-15-fluoro-N-[2-(1H-indol-3-yl)ethyl]-7,12-dimethyl-5,8,13-trioxo-2,3,6,7,8,9,10,11,12,13,19,19a-dodecahydro-1H,5H-pyrrolo[2,1-c][1,4,7,12] benzoxatriazacyclopentadecine-11-carboxamide]	20	80					93	48	99	
CN1C[C@H](NC(=O)OCc2ccccc2)C(=O)N(C)CC(=O)N2C[C@@H](NC(=O)OC(C)(C)C)C[C@H]2COc2cncc(c2)C1=O [Ex. 272, benzyl N-[(4S,6S,13S)-6-[(tert-butoxycarbonyl)amino]-11,15-dimethyl-9,12,16-trioxo-2-oxa-8,11,15,19-tetraazatricyclo [15.3.1.0^4,8]henicosa-1(21),17,19-trien-13-yl]carbamate]							92		95	38

Second part, led by results:

Metabolic Stability 60 min hum [4] [%]	Metabolic Stability 60 min mouse [5] [%]	Plasma Stability 240 min hum [6] [%]	Plasma Stability 240 min mouse [7] [%]	Metabolic Stability T ½ [min] hum [4, 9] [min]	Metabolic Stability T ½ [min] mouse [5, 9] [min]	Compound	Plasma Stability 240 min mouse [1] [%]	5-HT2B receptor agonist activity [% activation at 12.5 μM] [2] [%]	Plasma Stability 240 min hum [3] [%]	ring closure, yield of all isomers [8] [%]
2	55					CN1CC(=O)N2C[C@@H](NC(=O)OC(C)(C)C)C[C@H]2COc2ccc(F)cc2C(=O)N(C)[C@H](C(=O)NCCc2c[nH]c3ccccc23)CCC1=O [Ex. 30, tert-butyl N-[(2S,11S,19aS)-15-fluoro-11-({[2-(1H-indol-3-yl)ethyl]amino}carbonyl)-7,12-dimethyl-5,8,13-trioxo-2,3,6,7,8,9,10,11,12,13,19,19a-dodecahydro-1H,5H-pyrrolo[2,1-c][1,4,7,12]benzoxatriazacyclopentadecin-2-yl]carbamate]	100	48	85	
22	25	97	75	35	36	CCCCC(=O)N[C@H]1C[C@H]2COc3ccc(F)cc3C(=O)N(C)[C@@H](C(=O)NCc3ccc4ccccc4c3)CCC(=O)N(C)CC(=O)N2C1 [Ex. 103, (2S,115,19aS)-15-fluoro-7,12-dimethyl-N-(2-naphthylmethyl)-5,8,13-trioxo-2-(pentanoylamino)-2,3,6,7,8,9,10,11,12,13,19,19a-dodecahydro-1H,5H-pyrrolo[2,1-c][1,4,7,12] benzoxatriazacyclopentadecine-11-carboxamide]				
7	33					CN1CC(=O)N2C[C@@H](NC(=O)Cc3c[nH]c4ccccc34)C[C@H]2COc2ccc(F)cc2C(=O)N(C)[C@H](C(=O)NCCc2c[nH]c3ccccc23)CCC1=O [Ex. 12, (2S,11S,19aS)-15-fluoro-2-{[2-(1H-indol-3-yl)acetyl]amino}-N-[2-(1H-indol-3-yl)ethyl]-7,12-dimethyl-5,8,13-trioxo-2,3,6,7,8,9,10,11,12,13,19,19a-dodecahydro-1H,5H-pyrrolo [2,1-c][1,4,7,12]benzoxatriazacyclopentadecine-11-carboxamide]	100	36	99	
